Results published in article PMC12336439 (Archiv Der Pharmazie, 2025).
Several values for one entry are separate records, joined by “and”; a condition that tells them apart may be missing. Equal values may be shown once. Entries after “also recorded” stand apart in the source; their conditions may differ.

Experiments:
Assay type in all cases: binding
USP7 [1] = target: T1, USP7 (Homo sapiens, UniProt Q93009); assay: Differential scanning fluorimetry (DSF), melting temperature shift of USP7; conditions: 8 µM protein, 250 µM compound (1:31.25)
T1 construct: USP7 catalytic domain (USP7CD) (208‐560); made in house
T1 sequence (Q93009 with tags, fused parts or gaps): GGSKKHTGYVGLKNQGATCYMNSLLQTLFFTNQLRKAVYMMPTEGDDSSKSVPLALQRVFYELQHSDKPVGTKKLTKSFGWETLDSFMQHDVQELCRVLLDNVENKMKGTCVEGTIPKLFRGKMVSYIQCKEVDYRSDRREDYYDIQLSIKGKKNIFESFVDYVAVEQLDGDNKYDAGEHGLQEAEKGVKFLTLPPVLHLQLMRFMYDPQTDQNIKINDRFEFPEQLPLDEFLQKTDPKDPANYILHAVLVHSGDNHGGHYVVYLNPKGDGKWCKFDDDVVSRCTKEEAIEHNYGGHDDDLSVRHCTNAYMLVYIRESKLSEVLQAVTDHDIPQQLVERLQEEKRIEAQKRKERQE
Source text: The influence of the synthesized compounds on the melting temperature (T m) of USP7 and its mutant USP7asoc (active site only cysteine) was investigated by DSF. USP7asoc only retains the catalytic Cys223 while all the other six cysteines are mutated to serine. DSF was selected for initial assessment since it is an efficient and rapid primary screening method readily available to our lab.
An important consideration when assessing covalent inhibitors is the time dependence of covalent target occupancy and thus potency, which is determined by the reaction kinetics of the covalent binding event. To allow for drawing conclusions on compounds with slower reaction kinetics, incubation times of 30 min, 4 h, and 24 h at 20°C were chosen for the DSF screen with USP7 (Table 1 and Figures 2 and 3). The threshold at which compounds were considered (de‐)stabilizers was defined at 0.5°C. In parallel, the intrinsic reactivity of a set of representative compounds was evaluated in a glutathione reactivity assay. […] Data obtained from the GSH reactivity studies are shown in Supporting Information S2: Table S2.1 and Figures S2.1–2.3.
The melting temperatures of USP7 and USP7asoc in the presence or absence of fragments were determined by DSF on a Qiagen Rotor‐Q Model‐5‐Plex HRM real‐time PCR instrument (Qiagen, Hilden, Germany). SYPRO Orange (Life Technologies Corporation, Eugene, OR, USA) was used as a fluorescent dye at a final concentration of 5x. The protein concentration was 8 µM, and the final compound concentration was 250 µM, corresponding to a protein‐to‐compound ratio of 1:31.25. All compounds were dissolved in dimethyl sulfoxide (DMSO) and the proteins in Tris buffer (25 mM Tris pH 8.0, 150 mM NaCl, 5 mM TCEP, 5% (v/v) DMSO). All measurements were performed after 30 min, 4 h, and 24 h of incubation and at least in triplicate. DSF experiments were carried out with a constant heating rate of 270°C/h. The temperature was ramped from 28°C to 60°C–70°C with excitation and emission filters set at 470 nm and 610 nm, respectively. The melting temperatures (T m) of USP7 and USP7asoc were determined from the maxima of the first derivatives of the melting curves in OriginPro2020 (OriginLab, Northampton, MA, USA). The ∆T m was calculated by subtraction of the T m of the protein sample with pure DMSO from the T m of the protein sample mixed with compound. Error propagation was used to average multiple runs for a compound. A compound was considered to be a hit if the shift in the ∆T m was at least 0.50°C [55].

[2] = target: T2, USP7asoc (active site only cysteine) (Homo sapiens, UniProt Q93009, C300S/C315S/C334S/C478S/C488S/C510S); assay: Differential scanning fluorimetry (DSF), melting temperature shift of USP7asoc mutant; conditions: 8 µM protein, 250 µM compound (1:31.25)
T2 construct: (208‐560, C300/315/334/448/478/510S); made in house
T2 sequence (Q93009 with tags, fused parts or gaps C300S/C315S/C334S/C478S/C488S/C510S): as the sequence (Q93009 with tags, fused parts or gaps) above, with C96S, C111S, C130S, C274S, C284S, C306S counted along it
Method: USP7asoc only retains the catalytic Cys223 while all the other six cysteines are mutated to serine. DSF was selected for initial assessment since it is an efficient and rapid primary screening method readily available to our lab. […] An important consideration when assessing covalent inhibitors is the time dependence of covalent target occupancy and thus potency, which is determined by the reaction kinetics of the covalent binding event. To allow for drawing conclusions on compounds with slower reaction kinetics, incubation times of 30 min, 4 h, and 24 h at 20°C were chosen for the DSF screen with USP7 (Table 1 and Figures 2 and 3). The threshold at which compounds were considered (de‐)stabilizers was defined at 0.5°C. In parallel, the intrinsic reactivity of a set of representative compounds was evaluated in a glutathione reactivity assay. […] The expression and purification of USP7 catalytic domain (USP7CD) (208‐560) and USP7asoc (active site only cysteine) by using a pET24a(+)_HLT_USP7 construct were performed as previously described. […] For the USP7asoc, six of the seven cysteines are mutated to serines (208‐560, C300/315/334/448/478/510S). All utilized protein sequences are depicted in Supporting Information S2: Table S.3.1. The melting temperatures of USP7 and USP7asoc in the presence or absence of fragments were determined by DSF on a Qiagen Rotor‐Q Model‐5‐Plex HRM real‐time PCR instrument (Qiagen, Hilden, Germany). SYPRO Orange (Life Technologies Corporation, Eugene, OR, USA) was used as a fluorescent dye at a final concentration of 5x. The protein concentration was 8 µM, and the final compound concentration was 250 µM, corresponding to a protein‐to‐compound ratio of 1:31.25. All compounds were dissolved in dimethyl sulfoxide (DMSO) and the proteins in Tris buffer (25 mM Tris pH 8.0, 150 mM NaCl, 5 mM TCEP, 5% (v/v) DMSO). All measurements were performed after 30 min, 4 h, and 24 h of incubation and at least in triplicate. DSF experiments were carried out with a constant heating rate of 270°C/h. The temperature was ramped from 28°C to 60°C–70°C with excitation and emission filters set at 470 nm and 610 nm, respectively. The melting temperatures (T m) of USP7 and USP7asoc were determined from the maxima of the first derivatives of the melting curves in OriginPro2020 (OriginLab, Northampton, MA, USA). The ∆T m was calculated by subtraction of the T m of the protein sample with pure DMSO from the T m of the protein sample mixed with compound. Error propagation was used to average multiple runs for a compound. A compound was considered to be a hit if the shift in the ∆T m was at least 0.50°C [55].

USP7 [3] = target: T1, USP7; assay: Intact protein MS (UHPLC-ESI-MS), covalent modification of USP7; conditions: 24 h incubation at 20°C, protein-to-compound ratio 1:31.25
Method: The DSF results described above were validated by UHPLC‐ESI‐MS to verify possible covalent binding through a corresponding mass shift. Intact protein MS is an important screening method in irreversible‐covalent hit identification and is especially suitable for covalent fragment‐based drug discovery (FBDD). It allows for the identification of covalent binders by detecting covalent protein‐compound adducts, thus making use of the stability of the covalent bond.
USP7 was prepared in Tris buffer (25 mM Tris pH 8.0, 150 mM NaCl, 5 mM TCEP) with a protein‐to‐compound ratio of 1:31.25 and 5% (v/v) DMSO. The protein‐compound mixtures were all incubated at 20°C for 24 h on a rotating shaker. The analysis of intact protein mass was carried out using UHPLC‐ESI‐MS measurements, with data acquisition and data analysis as previously described.

USP7asoc = target: T3, USP7asoc (Homo sapiens, UniProt Q93009, C300S/C315S/C334S/C478S/C488S/C510S); assay: Intact protein MS (UHPLC-ESI-MS), covalent modification of USP7asoc; conditions: 24 h incubation at 20°C, protein-to-compound ratio 1:31.25
T3 construct: (208‐560, C300/315/334/448/478/510S); made in house
T3 sequence (Q93009 with tags, fused parts or gaps C300S/C315S/C334S/C478S/C488S/C510S): as the sequence (Q93009 with tags, fused parts or gaps) above, with C96S, C111S, C130S, C274S, C284S, C306S counted along it
Method: The DSF results described above were validated by UHPLC‐ESI‐MS to verify possible covalent binding through a corresponding mass shift. Intact protein MS is an important screening method in irreversible‐covalent hit identification and is especially suitable for covalent fragment‐based drug discovery (FBDD). It allows for the identification of covalent binders by detecting covalent protein‐compound adducts, thus making use of the stability of the covalent bond. USP7 was prepared in Tris buffer (25 mM Tris pH 8.0, 150 mM NaCl, 5 mM TCEP) with a protein‐to‐compound ratio of 1:31.25 and 5% (v/v) DMSO. The protein‐compound mixtures were all incubated at 20°C for 24 h on a rotating shaker. The analysis of intact protein mass was carried out using UHPLC‐ESI‐MS measurements, with data acquisition and data analysis as previously described.

Structure (SMILES)	∆T m ± SD USP7 (USP7 [1]; 30 min incubation at 20°C)	∆T m ± SD USP7asoc ([2]; 30 min incubation at 20°C)	∆T m ± SD USP7asoc ([2]; 4 h incubation at 20°C)	∆T m ± SD USP7 (USP7 [1]; 4 h incubation at 20°C)	∆T m ± SD USP7 (USP7 [1]; 24 h incubation at 20°C)	∆T m ± SD USP7asoc ([2]; 24 h incubation at 20°C)	protein species in deconvoluted mass spectrum of USP7 (USP7 [3])	protein species in deconvoluted mass spectrum of USP7asoc (USP7asoc)
O=[N+]([O-])c1ccc(F)nc1Nc1cc2c(-c3ccc4ccccc4c3)cccc2cn1 [7g, N‐(6‐Fluoro‐3‐nitropyridin‐2‐yl)‐5‐(naphthalen‐2‐yl)isoquinolin‐3‐amine]	0.10 ± 0.12 °C	0.63 °C and 0.63 ± 0.07 °C	0.25 ± 0.10 °C	0.30 ± 0 °C	0.25 ± 0.09 °C	0.38 ± 0.06 °C	mainly displayed the unmodified USP7 and USP7asoc species	mainly displayed the unmodified USP7 and USP7asoc species
O=[N+]([O-])c1ccc(F)nc1Nc1cc2c(-c3ccc(-c4cccnc4)cc3)cccc2cn1 [7h, N‐(6‐Fluoro‐3‐nitropyridin‐2‐yl)‐5‐[4‐(pyridin‐3‐yl)phenyl]isoquinolin‐3‐amine]	0.00 ± 0.12 °C	0.30 ± 0 °C	0.35 ± 0.09 °C	0.15 ± 0 °C	0.20 ± 0.09 °C	0.35 ± 0.04 °C	the unmodified protein species was again dominant; also recorded: unmodified USP7 and USP7asoc as the main peak	the unmodified protein species was again dominant; also recorded: unmodified USP7 and USP7asoc as the main peak
Cn1ccc(-c2cccc3cnc(Nc4nc(Cl)ccc4[N+](=O)[O-])cc23)c1 [8b, N‐(6‐Chloro‐3‐nitropyridin‐2‐yl)‐5‐(1‐methyl‐1H‐pyrrol‐3‐yl)isoquinolin‐3‐amine]	–	–0.30 ± 0 °C	0.35 ± 0.09 °C	–0.10 ± 0.09 °C	0.15 ± 0.09 °C	0.45 ± 0 °C	unmodified protein species was dominant with an additional smaller signal of the mono‐arylated species	only showed unmodified protein for USP7asoc

Second part, led by results:

∆T m ± SD USP7 (USP7 [1]; 30 min incubation at 20°C)	∆T m ± SD USP7asoc ([2]; 30 min incubation at 20°C)	∆T m ± SD USP7asoc ([2]; 4 h incubation at 20°C)	∆T m ± SD USP7 (USP7 [1]; 4 h incubation at 20°C)	∆T m ± SD USP7 (USP7 [1]; 24 h incubation at 20°C)	∆T m ± SD USP7asoc ([2]; 24 h incubation at 20°C)	Structure (SMILES)	protein species in deconvoluted mass spectrum of USP7 (USP7 [3])	protein species in deconvoluted mass spectrum of USP7asoc (USP7asoc)
0.00 ± 0.12 °C	0.48 ± 0.09 °C	–0.23 ± 0.08 °C	–	–	–	O=[N+]([O-])c1ccc(F)nc1Nc1cc2c(-c3cnn(CCO)c3)cccc2cn1 [7f, 2‐(4‐{3‐[(6‐Fluoro‐3‐nitropyridin‐2‐yl)amino]isoquinolin‐5‐yl}‐1H‐pyrazol‐1‐yl)ethan‐1‐ol]	single‐arylated USP7 and USP7asoc as a main signal	single‐arylated USP7 and USP7asoc as a main signal
–0.15 ± 0.12 °C	0.05 ± 0.09 °C	0.25 ± 0.12 °C	0.15 ± 0 °C	0.15 ± 0 °C	0.33 ± 0.08 °C	CCn1cc(-c2cccc3cnc(Nc4nc(Cl)ccc4[N+](=O)[O-])cc23)cn1 [8c, N‐(6‐Chloro‐3‐nitropyridin‐2‐yl)‐5‐(1‐ethyl‐1H‐pyrazol‐4‐yl)isoquinolin‐3‐amine]	only unmodified USP7 and USP7asoc were detected with a smaller peak corresponding to the single‐arylated protein species	only unmodified USP7 and USP7asoc were detected with a smaller peak corresponding to the single‐arylated protein species
0.25 ± 0.09 °C	–0.20 ± 0.09 °C	0.45 ± 0.12 °C	0.30 ± 0 °C	0.25 ± 0.09 °C	0.42 ± 0.16 °C	CCCn1cc(-c2cccc3cnc(Nc4nc(Cl)ccc4[N+](=O)[O-])cc23)cn1 [8d, N‐(6‐Chloro‐3‐nitropyridin‐2‐yl)‐5‐(1‐propyl‐1H‐pyrazol‐4‐yl)isoquinolin‐3‐amine]	unmodified USP7 and USP7asoc were again dominant	unmodified USP7 and USP7asoc were again dominant
–0.40 ± 0.09 °C	–	–	–0.15 ± 0 °C	–0.15 ± 0 °C	–	O=[N+]([O-])c1ccc(Cl)nc1Nc1cc2c(-c3cnn(C4CC4)c3)cccc2cn1 [8e, N‐(6‐Chloro‐3‐nitropyridin‐2‐yl)‐5‐(1‐cyclopropyl‐1H‐pyrazol‐4‐yl)isoquinolin‐3‐amine]	mainly showed signals for unmodified USP7 and USP7asoc	mainly showed signals for unmodified USP7 and USP7asoc
